Assay results: US12702656B2, “ALA and salt formulation” (Molecular Product Management LLC, priority 2016, dated 2026)

What was measured:
[1] = cited from earlier work
[2] = Oral dissolve acceptability / ALA burn of ALA lozenges and tablets in users; details: salt added to, or salt form used in, oral dissolve ALA formulation
Protocol: These tablets are circular, 9 mm in diameter, approximately 5 mm thick, having a weight of approximately 0.35 g and dissolution times of about 3.5 minutes.
Such NaCl-tablet and Non-Salt-tablet formulations being referred to as “NaCl-formulations” and “Non-Salt-formulation” respectively.
One way to specify or measure the difference resulting from the addition of any organic or inorganic salt (such as NaCl) to a formulation, is to measure the degree to which the Salt-formulation has less of an ALA burn than the Non-Salt-formulation when dissolved in the mouth.

[3] = antacid taken with ALA taken orally (ingested); found by some individuals
From the text: Some of the ALA in the saliva is swallowed during oral dissolve administration, therefore the esophagus and stomach encounter some ALA and may be irritated by it, particularly in humans and non-human species with sensitive stomachs.

For `O=C(O)CCCCC1CCSS1` (stereo not drawn) [ALA, Alpha-lipoic acid], the pKa [1] is given as 4.7.

For `[Cl-].[Na+]` [NaCl, sodium chloride], the “reduction of ALA burn (burning sensation in the mouth)” value [2] was “reduces the ALA burn during oral dissolution”.

For `O=C([O-])CCCC[C@@H]1CCSS1.[Na+]` [Na—R-ALA], the “reduction of ALA burn (burning sensation in the mouth)” value [2] was “further reduction of the ALA burning and/or rawness problems”.

With `O=C([O-])[O-].[Ca+2]` [calcium carbonate] the stomach irritation [3] was “reduces this stomach irritation”.
